One assay has as its target JAK1 (Homo sapiens (Human), UniProt P23458). The assay can be described thus: Jak biochemical HTRF assay, JAK1. Background: TR-FRET usually uses a lanthanide donor and a delayed reading to cut background.
A further assay concerns the target JAK2 (Homo sapiens (Human), UniProt O60674). The assay can be described thus: Jak biochemical HTRF assay, JAK2.
The mark [1] stands for this setting: JAK1 IC50 (nM), recombinant GST-tagged catalytic domain, [ATP] 31.8 μM.
Where [2] appears, read: JAK2 IC50 (nM), recombinant GST-tagged catalytic domain, [ATP] […].

Read-outs that look alike come from different tables or passages of the source.

Sequence of JAK1 (P23458 875-1153): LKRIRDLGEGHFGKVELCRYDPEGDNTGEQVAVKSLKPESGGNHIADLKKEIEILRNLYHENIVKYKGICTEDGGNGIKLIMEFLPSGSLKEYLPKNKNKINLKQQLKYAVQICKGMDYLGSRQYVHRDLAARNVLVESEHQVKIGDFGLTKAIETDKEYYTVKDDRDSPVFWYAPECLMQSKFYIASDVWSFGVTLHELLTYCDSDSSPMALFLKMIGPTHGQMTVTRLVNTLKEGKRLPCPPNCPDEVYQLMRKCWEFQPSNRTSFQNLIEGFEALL
Sequence of JAK2 (O60674 849-1124): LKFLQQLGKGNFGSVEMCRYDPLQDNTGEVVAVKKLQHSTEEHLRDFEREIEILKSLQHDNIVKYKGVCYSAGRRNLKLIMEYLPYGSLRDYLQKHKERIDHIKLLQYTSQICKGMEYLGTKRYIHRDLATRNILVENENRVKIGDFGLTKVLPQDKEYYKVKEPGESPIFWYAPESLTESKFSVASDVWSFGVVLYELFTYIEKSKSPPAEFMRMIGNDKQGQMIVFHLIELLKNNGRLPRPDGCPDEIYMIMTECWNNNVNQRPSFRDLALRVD

For orientation: IC50 means the point on the concentration scale where inhibition reaches its midpoint. For the molecule `C[C@@H](C#N)[C@H](C)n1cc(C(N)=O)c(Nc2ccccc2)n1` (mixture of isomers) [Example 1-23, 1-((2S, 3R and 2R, 3S)-3-cyclobutan-2-yl)-3-(phenylamino)-1H-pyrazole-4-carboxamide], the results for the IC50 on JAK1 (setting [1]) and at JAK2 (setting [2]) were 123 nM and 413 nM, respectively.
For `CC(CC#N)n1cc(C(N)=O)c(Nc2ccc(C(=O)N3CCS(=O)(=O)CC3)cc2)n1` (centres unmarked) [Example 1-16, 1-(2-cyano-1-methylethyl)-3-({4-[(1,1-dioxidothiomorpholin-4-yl)carbonyl]phenyl}amino)-1H-pyrazole-4-carboxamide] the same measures were 19 nM and 45 nM.
As to `COCCOC(=O)N1CCC([C@H](CC#N)n2cc(C(N)=O)c(Nc3ccc(F)cc3)n2)CC1` [Example 12-1, 2-Methoxyethyl 4-[(1S)-1-{4-carbamoyl-3-[(4-fluorophenyl)amino]-1H-pyrazol-1-yl}-2-cyanoethyl]piperidine-1-carboxylate], the IC50 at JAK1 (setting [1]) was 181 nM; on JAK2 (setting [2]) it was 1500 nM.
In the same order, the values of `N#CCC(C1CC1)n1cc(C(N)=O)c(Nc2ccc(S(=O)(=O)C(F)(F)F)cc2)n1` (centres unmarked) [Example 4-28, 1-(2-cyano-1-cyclopropylethyl)-3-({4-[(trifluoromethyl)sulfonyl]phenyl}amino)-1H-pyrazole-4-carboxamide] are 11 nM and 75 nM.
For `CC(C)(O)COCc1cccc(Nc2nn(C(CC#N)C3CC3)cc2C(N)=O)c1` (centres unmarked) [Example 6-1, 1-(2-Cyano-1-cyclopropylethyl)-3-({3-[(2-hydroxy-2-methylpropoxy)methyl]phenyl}amino)-1H-pyrazole-4-carboxamide] the same measures were 47 nM and 115 nM.
In the same order, the values of `N#CC[C@@H](C1CCN(C(=O)OCC2CCOC2)CC1)n1cc(C(N)=O)c(Nc2ccc(F)cc2)n1` (stereo partly drawn) [Example 11-12, tetrahydrofuran-3-ylmethyl 4-[(1S)-1-{4-carbamoyl-3-[(4-fluorophenyl)amino]-1H-pyrazol-1-yl}-2-cyanoethyl]piperidine-1-carboxylate] are 181 nM and 1500 nM.
`COCC(C)OC(=O)N1CCC([C@H](CC#N)n2cc(C(N)=O)c(Nc3ccc(F)cc3)n2)CC1` (stereo partly drawn) [Example 11-9, 2-methoxy-1-methylethyl 4-[(1S)-1-{4-carbamoyl-3-[(4-fluorophenyl)amino]-1H-pyrazol-1-yl}-2-cyanoethyl]piperidine-1-carboxylate]: the figures for the IC50 at JAK1 (setting [1]) and on JAK2 (setting [2]) were 108 nM and 1030 nM, respectively.
Regarding `N#CC[C@@H](C1CCN(C(=O)OCCN2CCOCC2)CC1)n1cc(C(N)=O)c(Nc2ccc(F)cc2)n1` [Example 11-13, 2-morpholin-4-ylethyl 4-[(1S)-1-{4-carbamoyl-3-[(4-fluorophenyl)amino]-1H-pyrazol-1-yl}-2-cyanoethyl]piperidine-1-carboxylate], the IC50 was determined as 753 nM at JAK1 (setting [1]) and 1500 nM at JAK2 (setting [2]).
In the same order, the values of `N#CC[C@@H](C1CCN(C(=O)OCC2CC2)CC1)n1cc(C(N)=O)c(Nc2ccc(F)cc2)n1` [Example 11-10, cyclopropylmethyl 4-[(1S)-1-{4-carbamoyl-3-[(4-fluorophenyl)amino]-1H-pyrazol-1-yl}-2-cyanoethyl]piperidine-1-carboxylate] are 44 nM and 1160 nM.
For `N#CCC(C1CC1)n1cc(C(N)=O)c(Nc2ccnc(F)c2)n1` (centres unmarked) [Example 4-37, 1-(2-cyano-1-cyclopropylethyl)-3-[(2-fluoropyridin-4-yl)amino]-1H-pyrazole-4-carboxamide] the same measures were 5 nM and 44 nM.
In the same order, the values of `N#CCC(C1CCCC1)n1cc(C(N)=O)c(Nc2ccccc2)n1` (single isomer, unassigned) [Example 16-4, 1-[(1S or 1R)-2-cyano-1-cyclopentylethyl]-3-(phenylamino)-1H-pyrazole-4-carboxamide] are 141 nM and 567 nM.
`N#CCC(C1CC1)n1cc(C(N)=O)c(Nc2ccc3c(c2)CCC3=O)n1` (centres unmarked) [Example 4-19, 1-(2-cyano-1-cyclopropylethyl)-3-[(1-oxo-2,3-dihydro-1H-inden-5-yl)amino]-1H-pyrazole-4-carboxamide]: the results for the IC50 on JAK1 (setting [1]) and on JAK2 (setting [2]) were 2 nM and 17 nM, respectively.
In the same order, the values of `CC(C#N)Cn1cc(C(N)=O)c(Nc2ccc(F)cc2)n1` (centres unmarked) [Example 9, 1-(2-Cyanopropyl)-3-[(4-fluorophenyl)amino]-1H-pyrazole-4-carboxamide] are 59 nM and 524 nM.
For `N#CCC(C1CCCC1)n1cc(C(N)=O)c(Nc2ccccc2)n1` (single isomer, unassigned) [Example 16-3, 1-[(1S or 1R)-2-cyano-1-cyclopentylethyl]-3-(phenylamino)-1H-pyrazole-4-carboxamide], the IC50 worked out at 47 nM on JAK1 (setting [1]) and 742 nM at JAK2 (setting [2]).
In the same order, the values of `CC(CC#N)n1cc(C(N)=O)c(Nc2ccccc2)n1` (centres unmarked) [Example 1-6, 1-(2-cyano-1-methylethyl)-3-(phenylamino)-1H-pyrazole-4-carboxamide] are 61 nM and 417 nM.
`CC[C@H](CC#N)n1cc(C(N)=O)c(Nc2ccccc2)n1` (single isomer, unassigned) [Example 16-1, 1-[(1R or 1S)-1-(cyanomethyl)propyl]-3-(phenylamino)-1H-pyrazole-4-carboxamide]: the IC50 on JAK1 (read-out: JAK1 IC50, recombinant GST-tagged catalytic domain, [ATP] 31.8 μM) amounted to 43 nM; at JAK2 (read-out: JAK2 IC50, recombinant GST-tagged catalytic domain, [ATP] […]) it was 578 nM.
In the case of `N#CCC(C1CC1)n1cc(C(N)=O)c(Nc2ccccc2)n1` (single isomer, unassigned) [Example 17-3, 1-[(1S or 1R)-2-cyano-1-cyclopropylethyl]-3-(phenylamino)-1H-pyrazole-4-carboxamide], the IC50 was determined as 10 nM on JAK1 (setting [1]) and 79 nM at JAK2 (setting [2]).
In the same order, the values of `N#CCC(C1CC1)n1cc(C(N)=O)c(Nc2ccccc2F)n1` (centres unmarked) [Example 4-5, 1-(2-cyano-1-cyclopropylethyl)-3-[(2-fluorophenyl)amino]-1H-pyrazole-4-carboxamide] are 360 nM and 1480 nM.
For the molecule `CC(C)(C)OC(=O)N1CCC(C(CC#N)n2cc(C(N)=O)c(Nc3ccc(F)cc3)n2)CC1` (centres unmarked) [Example 3-1, tert-Butyl 4-(1-[4-carbamoyl-3-[(4-fluorophenyl)amino]-1H-pyrazol-1-yl]-2-cyanoethyl)piperidine-1-carboxylate], the IC50 at JAK1 (setting [1]) amounted to 49 nM; at JAK2 (setting [2]) it was 1500 nM.
In the same order, the values of `CC(C)C(CC#N)n1cc(C(N)=O)c(Nc2ccccc2)n1` (centres unmarked) [Example 1-11, 1-[1-(cyanomethyl)-2-methylpropyl]-3-(phenylamino)-1H-pyrazole-4-carboxamide] are 64 nM and 641 nM.
For `CC(C)(C)OC(=O)N1CCC(F)(C(CC#N)n2cc(C(N)=O)c(Nc3ccccc3)n2)CC1` (centres unmarked) [Example 3-2, tert-butyl 4-{1-[4-carbamoyl-3-(phenylamino)-1H-pyrazol-1-yl]-2-cyanoethyl}-4-fluoropiperidine-1-carboxylate] the same measures were 99 nM and 1500 nM.
As for `N#CCC(C1CCCC1)n1cc(C(N)=O)c(Nc2ccccc2)n1` (centres unmarked) [Example 1-20, 1-(2-cyano-1-cyclopentylethyl)-3-(phenylamino)-1H-pyrazole-4-carboxamide], the IC50 came to 69 nM at JAK1 (setting [1]) and 474 nM at JAK2 (setting [2]).

(Values after patent US9493441B2, “Acyclic cyanoethylpyrazoles as janus kinase inhibitors” (Merck Sharp & Dohme Corp., priority 2011, dated 2016).)
